Source: patent US11427548B2 (Arvinas Operations, Inc., priority 2015, dated 2022)

Assays:
[1] = target: T1, Androgen Receptor (Homo sapiens, UniProt P10275); test: Androgen Receptor ELISA assay (PathScan AR ELISA) in VCaP cells: AR degradation, Dmax and DC50; type: cell-based; conditions: for Dmax: VCaP, read-out: VCaP Dmax (%); for DC50: read-out: VCaP DC50, concentration that caused 50% Androgen Receptor degradation, VCaP cells
T1 construct: endogenous in cells; host or cells: VCaP cells
T1 sequence (P10275 1-920): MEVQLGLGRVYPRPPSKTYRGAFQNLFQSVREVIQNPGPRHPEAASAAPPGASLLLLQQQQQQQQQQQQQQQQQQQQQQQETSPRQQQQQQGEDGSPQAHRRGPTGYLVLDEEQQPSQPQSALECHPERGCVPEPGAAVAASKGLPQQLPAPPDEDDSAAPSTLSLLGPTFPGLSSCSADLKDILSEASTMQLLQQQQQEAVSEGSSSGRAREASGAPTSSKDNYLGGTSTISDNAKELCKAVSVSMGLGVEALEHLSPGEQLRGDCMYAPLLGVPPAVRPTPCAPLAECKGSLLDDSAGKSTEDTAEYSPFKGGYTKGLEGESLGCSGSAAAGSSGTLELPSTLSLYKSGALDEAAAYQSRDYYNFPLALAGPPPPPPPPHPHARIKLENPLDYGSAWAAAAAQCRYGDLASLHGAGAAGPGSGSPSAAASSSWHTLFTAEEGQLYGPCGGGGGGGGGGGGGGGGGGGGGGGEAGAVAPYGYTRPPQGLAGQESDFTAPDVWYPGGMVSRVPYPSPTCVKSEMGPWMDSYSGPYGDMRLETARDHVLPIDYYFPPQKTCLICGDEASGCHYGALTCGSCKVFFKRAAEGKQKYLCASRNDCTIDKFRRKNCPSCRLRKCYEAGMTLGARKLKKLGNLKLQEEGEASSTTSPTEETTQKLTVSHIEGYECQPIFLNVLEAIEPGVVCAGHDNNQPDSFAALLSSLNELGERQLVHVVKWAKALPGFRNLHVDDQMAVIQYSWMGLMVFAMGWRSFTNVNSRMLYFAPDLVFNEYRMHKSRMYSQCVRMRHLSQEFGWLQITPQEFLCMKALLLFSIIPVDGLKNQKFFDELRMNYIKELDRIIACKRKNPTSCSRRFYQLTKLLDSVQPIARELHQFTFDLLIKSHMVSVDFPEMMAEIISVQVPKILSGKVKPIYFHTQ
How it was run: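 After 24 h exposure of VCaP cells (charcoal-stripped serum, 0.1 nM R1881 agonist, 0.1% DMSO) to seven half-log compound concentrations, residual AR in lysates was measured by PathScan ELISA (TMB absorbance, 450 nm). Cells were plated at 30,000/well and grown at least 3 days beforehand.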

[2] = target: T2, Androgen Receptor (Homo sapiens, UniProt P10275+P40337, T878A); test: Androgen Receptor ELISA assay (PathScan AR ELISA) in LNCaP cells: AR degradation, Dmax and DC50; type: cell-based; conditions: for DC50: concentration that caused 50% Androgen Receptor degradation; for Dmax: highest percentage of Androgen Receptor degradation observed
T2 construct: Compounds have been evaluated in this assay in LNCaP and/or VCaP cells utilizing similar protocols; endogenous in cells; host or cells: LNCaP cells
T2 sequence (P10275 whole entry T878A): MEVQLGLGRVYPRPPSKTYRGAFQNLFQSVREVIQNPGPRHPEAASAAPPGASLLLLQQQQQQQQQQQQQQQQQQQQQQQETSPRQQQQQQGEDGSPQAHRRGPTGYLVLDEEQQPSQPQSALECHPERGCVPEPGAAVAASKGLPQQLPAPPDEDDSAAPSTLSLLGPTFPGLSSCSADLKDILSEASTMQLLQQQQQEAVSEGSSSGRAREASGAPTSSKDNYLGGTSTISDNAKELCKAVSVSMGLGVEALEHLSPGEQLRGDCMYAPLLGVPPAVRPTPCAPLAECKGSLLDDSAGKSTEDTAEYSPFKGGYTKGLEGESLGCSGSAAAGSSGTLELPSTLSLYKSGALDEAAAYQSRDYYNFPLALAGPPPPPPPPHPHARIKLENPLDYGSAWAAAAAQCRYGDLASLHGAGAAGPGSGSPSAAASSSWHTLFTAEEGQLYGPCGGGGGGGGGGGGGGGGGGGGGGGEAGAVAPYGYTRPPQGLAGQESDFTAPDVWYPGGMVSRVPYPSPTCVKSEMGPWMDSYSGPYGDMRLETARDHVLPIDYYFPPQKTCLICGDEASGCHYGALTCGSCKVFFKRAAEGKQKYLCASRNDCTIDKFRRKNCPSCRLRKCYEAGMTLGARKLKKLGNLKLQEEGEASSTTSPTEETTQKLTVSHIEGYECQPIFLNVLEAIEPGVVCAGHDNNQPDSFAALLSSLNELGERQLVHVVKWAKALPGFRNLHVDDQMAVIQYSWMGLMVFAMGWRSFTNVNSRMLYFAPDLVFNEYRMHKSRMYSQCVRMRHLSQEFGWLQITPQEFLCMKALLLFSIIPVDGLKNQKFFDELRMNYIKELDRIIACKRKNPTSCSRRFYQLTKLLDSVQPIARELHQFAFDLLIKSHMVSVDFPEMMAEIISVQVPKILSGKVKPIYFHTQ
T2 sequence (P40337 whole entry): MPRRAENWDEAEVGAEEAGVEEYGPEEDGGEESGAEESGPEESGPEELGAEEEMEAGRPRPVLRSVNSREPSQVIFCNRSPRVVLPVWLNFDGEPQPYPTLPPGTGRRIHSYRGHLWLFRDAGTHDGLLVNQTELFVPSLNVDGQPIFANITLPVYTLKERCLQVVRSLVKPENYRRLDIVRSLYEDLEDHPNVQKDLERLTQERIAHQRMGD
T2 sequence (Q15369 whole entry partner): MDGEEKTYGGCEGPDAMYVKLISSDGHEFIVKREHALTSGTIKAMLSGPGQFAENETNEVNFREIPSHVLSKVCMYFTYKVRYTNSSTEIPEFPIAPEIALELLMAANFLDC
T2 sequence (Q15370 whole entry partner): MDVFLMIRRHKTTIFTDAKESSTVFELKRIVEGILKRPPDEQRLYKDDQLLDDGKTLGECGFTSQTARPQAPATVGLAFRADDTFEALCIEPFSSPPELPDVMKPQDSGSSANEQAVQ

SMILES | Dmax [1] | DC50 [2] | Dmax [2] | DC50 [1]
Cc1ncsc1-c1ccc(CNC(=O)[C@@H]2C[C@@H](O)CN2C(=O)[C@@H](NC(=O)CCCOCC#CC#CCOc2ccc(N3C(=S)N(c4ccc(C#N)c(C(F)(F)F)c4)C(=O)C3(C)C)cc2)C(C)(C)C)cc1 [Example 56, (2S,4R)-1-[(2S)-2-(4-{[6-(4-{3-[4-cyano-3-(trifluoromethyl)phenyl]-5,5-dimethyl-4-oxo-2-sulfanylideneimidazolidin-1-yl}phenoxy)hexa-2,4-diyn-1-yl]oxy}butanamido)-3,3-dimethylbutanoyl]-4-hydroxy-N-{[4-(4-methyl-1,3-thiazol-5-yl)phenyl]methyl}pyrrolidine-2-carboxamide] | < 25% | > 501 nM | 26 to 50% | 
Cc1ncsc1-c1ccc(CNC(=O)[C@@H]2C[C@@H](O)CN2C(=O)[C@@H](NC(=O)COCCCCCNC(=O)CCCc2ccc(N3C(=S)N(c4ccc(C#N)c(C(F)(F)F)c4)C(=O)C3(C)C)cc2)C(C)(C)C)cc1 [Example 63, (2S,4R)-1-[(2S)-2-[2-({5-[4-(4-{3-[4-cyano-3-(trifluoromethyl)phenyl]-5,5-dimethyl-4-oxo-2-sulfanylideneimidazolidin-1-yl}phenyl)butanamido]pentyl}oxy)acetamido]-3,3-dimethylbutanoyl]-4-hydroxy-N-{[4-(4-methyl-1,3-thiazol-5-yl)phenyl]methyl}pyrrolidine-2-carboxamide] | 26 to 50% | 51 to 500 nM | > 71% | < 50 nM
Cc1ncsc1-c1ccc(CNC(=O)[C@@H]2C[C@@H](O)CN2C(=O)[C@@H](NC(=O)COCCCCCN(C)C(=O)CCCc2ccc(N3C(=S)N(c4ccc(C#N)c(C(F)(F)F)c4)C(=O)C3(C)C)cc2)C(C)(C)C)cc1 [Example 65, (2S,4R)-1-[(2S)-2-[2-({5-[4-(4-{3-[4-cyano-3-(trifluoromethyl)phenyl]-5,5-dimethyl-4-oxo-2-sulfanylideneimidazolidin-1-yl}phenyl)-N-methylbutanamido]pentyl}oxy)acetamido]-3,3-dimethylbutanoyl]-4-hydroxy-N-{[4-(4-methyl-1,3-thiazol-5-yl)phenyl]methyl}pyrrolidine-2-carboxamide] | 51 to 70% | 51 to 500 nM | 51 to 70% | < 50 nM
Cc1ncsc1-c1ccc(CNC(=O)[C@@H]2C[C@@H](O)CN2C(=O)[C@@H](NC(=O)OCCOCCOc2ccc(-c3ccc(N4C(=S)N(c5ccc(C#N)c(C(F)(F)F)c5)C(=O)C4(C)C)cc3)cc2)C(C)(C)C)cc1 [Example 66, 2-(2-(4′-(3-(4-cyano-3-(trifluoromethyl)phenyl)-5,5-dimethyl-4-oxo-2-thioxoimidazolidin-1-yl)biphenyl-4-yloxy)ethoxy)ethyl (S)-1-((2S,4R)-4-hydroxy-2-(4-(4-methylthiazol-5-yl)benzylcarbamoyl)pyrrolidin-1-yl)-3,3-dimethyl-1-oxobutan-2-ylcarbamate] | 26 to 50% | 51 to 500 nM | 51 to 70% | 51 to 500 nM
Cc1ncsc1-c1ccc(CNC(=O)[C@@H]2C[C@@H](O)CN2C(=O)[C@@H](NC(=O)COCCOCCOc2ccc(-c3ccc(N4C(=S)N(c5ccc(C#N)c(C(F)(F)F)c5)C(=O)C4(C)C)cc3)cc2)C(C)(C)C)cc1 [Example 67, (2S,4R)-1-((S)-2-(2-(2-(2-(4′-(3-(4-cyano-3-(trifluoromethyl)phenyl)-5,5-dimethyl-4-oxo-2-thioxoimidazolidin-1-yl)biphenyl-4-yloxy)ethoxy)ethoxy)acetamido)-3,3-dimethylbutanoyl)-4-hydroxy-N-(4-(4-methylthiazol-5-yl)benzyl)pyrrolidine-2-carboxamide] | 26 to 50% | < 50 nM | > 71% | < 50 nM
Cc1ncsc1-c1ccc(CNC(=O)[C@@H]2C[C@@H](O)CN2C(=O)[C@@H](NC(=O)CCCCOc2ccc(-c3ccc(N4C(=S)N(c5ccc(C#N)c(C(F)(F)F)c5)C(=O)C4(C)C)cc3)cc2)C(C)(C)C)cc1 [Example 69, (2S,4R)-1-[(2S)-2-{5-[4-(4-{3-[4-cyano-3-(trifluoromethyl)phenyl]-5,5-dimethyl-4-oxo-2-sulfanylideneimidazolidin-1-yl}phenyl)phenoxy]pentanamido}-3,3-dimethylbutanoyl]-4-hydroxy-N-{[4-(4-methyl-1,3-thiazol-5-yl)phenyl]methyl}pyrrolidine-2-carboxamide] | 26 to 50% | 51 to 500 nM | > 71% | 51 to 500 nM
Cc1ncsc1-c1ccc(CNC(=O)[C@@H]2C[C@@H](O)CN2C(=O)[C@@H](NC(=O)CCOCCOc2ccc(-c3ccc(N4C(=S)N(c5ccc(C#N)c(C(F)(F)F)c5)C(=O)C4(C)C)cc3)cc2)C(C)(C)C)cc1 [Example 70, (2S,4R)-1-[(2S)-2-(3-{2-[4-(4-{3-[4-cyano-3-(trifluoromethyl)phenyl]-5,5-dimethyl-4-oxo-2-sulfanylideneimidazolidin-1-yl}phenyl)phenoxy]ethoxy}propanamido)-3,3-dimethylbutanoyl]-4-hydroxy-N-{[4-(4-methyl-1,3-thiazol-5-yl)phenyl]methyl}pyrrolidine-2-carboxamide] | 26 to 50% | < 50 nM | > 71% | < 50 nM
Cc1ncsc1-c1ccc(CNC(=O)[C@@H]2C[C@@H](O)CN2C(=O)[C@@H](NC(=O)COCCCCCOc2ccc(-c3ccc(N4C(=S)N(c5ccc(C#N)c(C(F)(F)F)c5)C(=O)C4(C)C)cc3)cc2)C(C)(C)C)cc1 [Example 71, (2S,4R)-1-[(2S)-2-[2-({5-[4-(4-{3-[4-cyano-3-(trifluoromethyl)phenyl]-5,5-dimethyl-4-oxo-2-sulfanylideneimidazolidin-1-yl}phenyl)phenoxy]pentyl}oxy)acetamido]-3,3-dimethylbutanoyl]-4-hydroxy-N-{[4-(4-methyl-1,3-thiazol-5-yl)phenyl]methyl}pyrrolidine-2-carboxamide] | 51 to 70% | < 50 nM | > 71% | < 50 nM
Cc1ncsc1-c1ccc(CNC(=O)[C@@H]2C[C@@H](O)CN2C(=O)[C@@H](NC(=O)COCCOCCOc2ccc(-c3ccc(N4C(=S)N(c5ccc(C#N)c(C(F)(F)F)c5)C(=O)C4(C)C)cc3F)cc2)C(C)(C)C)cc1 [Example 73, (2S,4R)-1-[(2S)-2-[2-(2-{2-[4-(4-{3-[4-cyano-3-(trifluoromethyl)phenyl]-5,5-dimethyl-4-oxo-2-sulfanylideneimidazolidin-1-yl}-2-fluorophenyl)phenoxy]ethoxy}ethoxy)acetamido]-3,3-dimethylbutanoyl]-4-hydroxy-N-{[4-(4-methyl-1,3-thiazol-5-yl)phenyl]methyl}pyrrolidine-2-carboxamide] | 51 to 70% | < 50 nM | > 71% | < 50 nM
Cc1ncsc1-c1ccc(CNC(=O)[C@@H]2C[C@@H](O)CN2C(=O)[C@@H](NC(=O)OCCCCCOc2ccc(-c3ccc(N4C(=S)N(c5ccc(C#N)c(C(F)(F)F)c5)C(=O)C4(C)C)cc3)cc2)C(C)(C)C)cc1 [Example 74, 5-[4-(4-{3-[4-cyano-3-(trifluoromethyl)phenyl]-5,5-dimethyl-4-oxo-2-sulfanylideneimidazolidin-1-yl}phenyl)phenoxy]pentyl N-[(2S)-1-[(2S,4R)-4-hydroxy-2-({[4-(4-methyl-1,3-thiazol-5-yl)phenyl]methyl}carbamoyl)pyrrolidin-1-yl]-3,3-dimethyl-1-oxobutan-2-yl]carbamate] | 26 to 50% | < 50 nM | > 71% | < 50 nM
Cc1ncsc1-c1ccc(CNC(=O)[C@@H]2C[C@@H](O)CN2C(=O)[C@@H](NC(=O)COCCCOc2ccc(-c3ccc(N4C(=S)N(c5ccc(C#N)c(C(F)(F)F)c5)C(=O)C4(C)C)cc3)cc2)C(C)(C)C)cc1 [Example 77] | 51 to 70% | < 50 nM | > 71% | < 50 nM
Cc1ncsc1-c1ccc(CNC(=O)[C@@H]2C[C@@H](O)CN2C(=O)[C@@H](NC(=O)COCCOc2ccc(-c3ccc(N4C(=S)N(c5ccc(C#N)c(C(F)(F)F)c5)C(=O)C4(C)C)cc3)cc2)C(C)(C)C)cc1 [Example 78] | 51 to 70% | < 50 nM | > 71% | < 50 nM
